Results taken from patent publication US20250019387A1 (Frontier Medicines Corporation, priority 0001, published 2025).

Molecular target: KRAS G12C and cRAF (Ras-binding domain) interaction (Homo sapiens (Human), UniProt P01116, C118S/C51S/C80L/G12C)
Test: Inhibition of KRAS G12C and cRAF binding (AlphaScreen)
Conditions: GMPPNP-loaded KRAS G12C, 19-20 hours incubation with compound; read-out: IC50 (Inhibition of KRAS G12C and cRAF Binding)
In short: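 IC50 values come from 4-parameter nonlinear regression of AlphaScreen signal (680 nm excitation, 570 nm emission). Compound plates sat 19-20 h at room temperature before RBD and donor/acceptor beads were added in Hepes pH 7.4 buffer with 150 mM NaCl, 5 mM MgCl2, 2% DMSO for 60-90 min; biotin-AviTag-GST replaced RBD to flag assay-technology interferers.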

Sequence of KRAS G12C and cRAF (Ras-binding domain) interaction (P01116 other isoform, or with tags, fused parts or gaps G12C/C51S/C80L/C118S): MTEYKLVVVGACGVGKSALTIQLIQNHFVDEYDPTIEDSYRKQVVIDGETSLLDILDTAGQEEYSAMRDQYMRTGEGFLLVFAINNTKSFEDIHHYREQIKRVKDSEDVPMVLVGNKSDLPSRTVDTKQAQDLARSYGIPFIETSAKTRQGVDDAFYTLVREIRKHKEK

IC50 [nM] | SMILES
10 to 100 | CN1CCCC1C#CC(=O)N1CC[C@@H](N(C)c2nc(OC[C@@]34CCCN3C[C@H](F)C4)nc3c(F)c(-c4cccc5cccc(Cl)c45)ncc23)C1 (stereo partly drawn) [Example 66, 1-((R)-3-((7-(8-chloronaphthalen-1-yl)-8-fluoro-2-(((2R,7aS)-2-fluorotetrahydro-1H-pyrrolizin-7a(5H)-yl)methoxy)pyrido[4,3-d]pyrimidin-4-yl)(methyl)amino)pyrrolidin-1-yl)-3-(1-methylpyrrolidin-2-yl)prop-2-yn-1-one]
10 to 100 | CN(c1nc(OC[C@@]23CCCN2C[C@H](F)C3)nc2c(F)c(-c3cccc4cccc(Cl)c34)ncc12)[C@@H]1CCN(C(=O)/C=C/CN2CCOCC2)C1 [Example 90, (E)-1-((R)-3-((7-(8-chloronaphthalen-1-yl)-8-fluoro-2-(((2R,7aS)-2-fluorohexahydro-1H-pyrrolizin-7a-yl)methoxy)pyrido[4,3-d]pyrimidin-4-yl)(methyl)amino)pyrrolidin-1-yl)-4-morpholinobut-2-en-1-one]
10 to 100 | CN(c1nc(OC[C@@]23CCCN2C[C@H](F)C3)nc2c(F)c(-c3cccc4cccc(Cl)c34)ncc12)[C@@H]1CCN(C(=O)/C=C/[C@H]2CCN2CC2COC2)C1 [Example 224, (E)-1-((R)-3-((7-(8-chloronaphthalen-1-yl)-8-fluoro-2-(((2R,7aS)-2-fluorotetrahydro-1H-pyrrolizin-7a(5H)-yl)methoxy)pyrido[4,3-d]pyrimidin-4-yl)(methyl)amino)pyrrolidin-1-yl)-3-((R)-1-(oxetan-3-ylmethyl)azetidin-2-yl)prop-2-en-1-one]
> 500 | COC(=O)/C=C/C(=O)N1CC[C@H](N(C)c2nc(OC[C@@H]3CCCN3C)nc3c(F)c(-c4cccc5cccc(Cl)c45)ncc23)C1 [Example 26, methyl(E)-4-((S)-3-((7-(8-chloronaphthalen-1-yl)-8-fluoro-2-(((S)-1-methylpyrrolidin-2-yl)methoxy)pyrido[4,3-d]pyrimidin-4-yl)(methyl)amino)pyrrolidin-1-yl)-4-oxobut-2-enoate]

The remaining lines, values behind:

SMILES | IC50 [nM]
CCN(CC)C/C=C/S(=O)(=O)CCN(C)c1nc(OCC23CCCN2CCC3)nc2c1CCN(c1cccc3cccc(Cl)c13)C2 [Example 55, (E)-7-(8-chloronaphthalen-1-yl)-N-(2-((3-(diethylamino)prop-1-en-1-yl)sulfonyl)ethyl)-2-((hexahydro-1H-pyrrolizin-7a-yl)methoxy)-N-methyl-5,6,7,8-tetrahydropyrido[3,4-d]pyrimidin-4-amine] | < 10
CN1CCC1C#CC(=O)N1CC[C@@H](N(C)c2nc(OC[C@@]34CCCN3C[C@H](F)C4)nc3c(F)c(-c4cccc5cccc(Cl)c45)ncc23)C1 (stereo partly drawn) [Example 186, 1-((R)-3-((7-(8-chloronaphthalen-1-yl)-8-fluoro-2-(((2R,7aS)-2-fluorohexahydro-1H-pyrrolizin-7a-yl)methoxy)pyrido[4,3-d]pyrimidin-4-yl)(methyl)amino)pyrrolidin-1-yl)-3-(1-methylazetidin-2-yl)prop-2-yn-1-one] | < 10
C#Cc1c(F)ccc2cccc(-c3ncc4c(N(C)[C@@H]5CCN(C(=O)C=C)C5)nc(OC[C@@]56CCCN5C[C@H](F)C6)nc4c3F)c12 [Example 187, 1-((R)-3-((7-(8-ethynyl-7-fluoronaphthalen-1-yl)-8-fluoro-2-(((2R,7aS)-2-fluorohexahydro-1H-pyrrolizin-7a-yl)methoxy)pyrido[4,3-d]pyrimidin-4-yl)(methyl)amino)pyrrolidin-1-yl)prop-2-en-1-one] | < 10
Cc1nsc(/C=C/C(=O)N2CC(CN(C)c3nc(OC[C@@]45CCCN4C[C@H](F)C5)nc4c(F)c(-c5cccc6cccc(Cl)c56)ncc34)C2)n1 [Example 74, (E)-1-(3-(((7-(8-chloronaphthalen-1-yl)-8-fluoro-2-(((2R,7aS)-2-fluorotetrahydro-1H-pyrrolizin-7a(5H)-yl)methoxy)pyrido[4,3-d]pyrimidin-4-yl)(methyl)amino)methyl)azetidin-1-yl)-3-(3-methyl-1,2,4-thiadiazol-5-yl)prop-2-en-1-one] | 100 to 500
CN(c1nc(OC[C@@]23CCCN2C[C@H](F)C3)nc2c(F)c(-c3cccc4ccc(F)c(Cl)c34)ncc12)[C@@H]1CCN(C(=O)/C=C/C2COCCN2)C1 (stereo partly drawn) [Example 123, (E)-1-((R)-3-((7-(8-chloro-7-fluoronaphthalen-1-yl)-8-fluoro-2-(((2R,7aS)-2-fluorotetrahydro-1H-pyrrolizin-7a(5H)-yl)methoxy)pyrido[4,3-d]pyrimidin-4-yl)(methyl)amino)pyrrolidin-1-yl)-3-(morpholin-3-yl)prop-2-en-1-one] | 100 to 500
C=CC(=O)N1C[C@@H](N(C)c2nc(OC[C@@]34CCCN3C[C@H](F)C4)nc3c(F)c(-c4cccc5cccc(Cl)c45)ncc23)C(F)(F)C1 [Example 285, 1-((R)-4-((7-(8-chloronaphthalen-1-yl)-8-fluoro-2-(((2R,7aS)-2-fluorotetrahydro-1H-pyrrolizin-7a(5H)-yl)methoxy)pyrido[4,3-d]pyrimidin-4-yl)(methyl)amino)-3,3-difluoropyrrolidin-1-yl)prop-2-en-1-one] | > 500
C=CC(=O)N1CC[C@@H](N(CC2CC2)c2nc(OC[C@@]34CCCN3C[C@H](F)C4)nc3c(F)c(-c4cccc5cccc(Cl)c45)ncc23)C1 [Example 250, 1-((R)-3-((7-(8-chloronaphthalen-1-yl)-8-fluoro-2-(((2R,7aS)-2-fluorohexahydro-1H-pyrrolizin-7a-yl)methoxy)pyrido[4,3-d]pyrimidin-4-yl)(cyclopropylmethyl)amino)pyrrolidin-1-yl)prop-2-en-1-one] | 100 to 500
CN(CC1CN(C(=O)/C=C/c2nc(C(C)(C)O)no2)C1)c1nc(OC[C@@]23CCCN2C[C@H](F)C3)nc2c(F)c(-c3cccc4cccc(Cl)c34)ncc12 [Example 105, (E)-1-(3-(((7-(8-chloronaphthalen-1-yl)-8-fluoro-2-(((2R,7aS)-2-fluorotetrahydro-1H-pyrrolizin-7a(5H)-yl)methoxy)pyrido[4,3-d]pyrimidin-4-yl)(methyl)amino)methyl)azetidin-1-yl)-3-(3-(2-hydroxypropan-2-yl)-1,2,4-oxadiazol-5-yl)prop-2-en-1-one] | < 10
CN(CC1CN(C(=O)/C=C/CN2CCOCC2)C1)c1nc(OC[C@@]23CCCN2C[C@H](F)C3)nc2c(F)c(-c3cccc4cccc(Cl)c34)ncc12 [Example 89, (E)-1-(3-(((7-(8-chloronaphthalen-1-yl)-8-fluoro-2-(((2R,7aS)-2-fluorotetrahydro-1H-pyrrolizin-7a(5H)-yl)methoxy)pyrido[4,3-d]pyrimidin-4-yl)(methyl)amino)methyl)azetidin-1-yl)-4-morpholinobut-2-en-1-one] | 10 to 100

Same assay, conditions: additional exemplary compounds; KRAS G12C and cRAF binding; read-out: RAF1 RBD IC50

IC50 [nM] | SMILES
> 500 | C=CC(=O)N1C[C@H](C)C[C@@H](Nc2nc(OC[C@@]34CCCN3C[C@H](F)C4)nc3c(F)c(-c4cccc5cccc(Cl)c45)ncc23)C1
100 to 500 | COC/C=C/C(=O)N1CC[C@@H](N(C)c2nc(OCC34CCCN3CCC4)nc3c2CCN(c2cccc4cccc(Cl)c24)C3)C1
10 to 100 | C=CC(=O)N1CC(CN(C)c2nc(OCC34CCCN3CCC4)nc3c(F)c(-c4cccc5cccc(Cl)c45)ncc23)C1
> 500 | CN(c1nc(OCC23CCCN2CCC3)nc2c(F)c(-c3cccc4cccc(Cl)c34)ncc12)[C@@H]1CCN(C(=O)/C=C/c2ncccn2)C1
> 500 | CN(c1nc(OC[C@@]23CCCN2C[C@H](F)C3)nc2c(F)c(-c3cccc4cccc(Cl)c34)ncc12)[C@@H]1CCN(C(=O)/C=C/c2ncn(C)n2)C1
< 10 | CCN(CC)C/C=C/S(=O)(=O)CCN(C)c1nc(OCC23CCCN2CCC3)nc2c(F)c(-c3cccc4cccc(Cl)c34)ncc12
< 10 | C=CS(=O)(=O)CCN(C)c1nc(OCC23CCCN2CCC3)nc2c(F)c(-c3cccc4cccc(Cl)c34)ncc12
> 500 | C=CC(=O)N1CC[C@H]2[C@@H]1CCN2c1nc(OC[C@@]23CCCN2C[C@H](F)C3)nc2c1CCN(c1cccc3cccc(Cl)c13)C2
> 500 | CN(CCS(=O)(=O)/C=C/CN1CC(F)(F)C1)c1nc(OC[C@@H]2CCCN2C)nc2c(F)c(-c3cccc4cccc(Cl)c34)ncc12
100 to 500 | C=CC(=O)N1CC(CN(C)c2nc(OC[C@@]34CCCN3C[C@H](F)C4)nc3c2CCN(c2cccc4cccc(Cl)c24)C3)C1
10 to 100 | CN(C)C/C=C/C(=O)N1CC[C@@H](N(C)c2nc(OC[C@@]34CCCN3C[C@H](F)C4)nc3c2CCN(c2cccc4ccc(F)c(Cl)c24)C3)C1
< 10 | CN(C)C/C=C/S(=O)(=O)CCN(C)c1nc(OCC23CCCN2CCC3)nc2c1CCN(c1cccc3cccc(Cl)c13)C2
> 500 | C=CC(=O)N1CCC1CN(C)c1nc(OC[C@@]23CCCN2C[C@H](F)C3)nc2c1CCN(c1cccc3cccc(Cl)c13)C2 (some centres unmarked)

The remaining lines, values behind:

SMILES | IC50 [nM]
CC(C)c1noc(/C=C/C(=O)N2CCN(c3nc(OCC45CCCN4CCC5)nc4c3CCN(c3cccc5cccc(Cl)c35)C4)CC2)n1 | > 500
C=CC(=O)N1CC[C@@H](N(C)c2nc(OC[C@@]34CCCN3C[C@H](F)C4)nc3c(F)c(-c4cc(C(F)F)cc5ccccc45)ncc23)C1 | > 500
Cc1nccc(/C=C/C(=O)N2[C@@H]3CC[C@H]2CN(c2nc(OC[C@@]45CCCN4C[C@H](F)C5)nc4c(F)c(-c5cccc6cccc(Cl)c56)ncc24)C3)n1 | > 500
C=CC(=O)N1[C@H]2CC[C@@H]1[C@@H](N(C)c1nc(OC[C@@]34CCCN3C[C@H](F)C4)nc3c1CCN(c1cccc4cccc(Cl)c14)C3)C2 | > 500
C=CC(=O)N1CCCC1CN(C)c1nc(OC[C@@]23CCCN2C[C@H](F)C3)nc2c(F)c(-c3cccc4cccc(Cl)c34)ncc12 (some centres unmarked) | > 500
C=CC(=O)N1CC(CN(C)c2nc(OC[C@]34CCCN3C[C@@H](F)C4)nc3c2CCN(c2cccc4cccc(Cl)c24)C3)C1 | 100 to 500
